According to ChEMBL document CHEMBL5260804 (ACS Med Chem Lett, 2017):

Columns and labels:
[1] = tested on: Influenza A virus; experiment: Antiviral activity against amantadine-sensitive influenza A virus A/WSN/33-M2-N31S (H1N1) infected in MDCK cells assessed as inhibition of virus-induced cytopathic effect incubated for 48 hrs by crystal violet/neutral red staining based assay; assay type: functional, organism-based
[2] = tested on: Oocyte; experiment: Inhibition of influenza A virus A/WSN/33-M2-N31S (H1N1) M2 transmembrane domain V28I mutant expressed in Xenopus laevis oocytes assessed as inhibition of channel current at 100 uM measured after 2 mins by two-electrode voltage clamp assay relative to control; assay type: cell-based
[3] = tested on: Oocyte; experiment: Inhibition of influenza A virus A/WSN/33-M2-N31S (H1N1) M2 transmembrane domain V28I mutant expressed in Xenopus laevis oocytes assessed as inhibition of channel current at 100 uM measured after 5 mins by two-electrode voltage clamp assay relative to control; assay type: cell-based

| SMILES | IC50 [1] [nM] | inhibition [2] [%] | inhibition [3] [%] |
| --- | --- | --- | --- |
| C[C@@H](N)C12CC3CC(CC(C3)C1)C2 | 40 | 71 | 90 |
| CC(N)C12CC3CC(CC(C3)C1)C2 (racemic) [RIMANTADINE] | 40 | 84 | 93 |
| CC(C)(N)C12CC3CC(CC(C3)C1)C2 | 30 | 56 | 80 |
| NC12CC3CC(CC(C3)C1)C2 [AMANTADINE] | 480 | – | – |
| C[C@H](N)C12CC3CC(CC(C3)C1)C2 | 20 | 78 | 92 |
